The structures appear in SMILES notation. In brackets after ≈: the same amount, converted by molar mass. Some results are limits rather than exact numbers.

Assay [1] deals with IL-6. As to the kind of experiment: IL-6 release in supernatants of LPS-treated primary microglial cells (ELISA). The following applies: 72 h; for IL-6 release: LPS-treated; for IC50: Rattus norvegicus, inhibition of LPS-induced cytokine release, read-out: IL-6 IC50. It counts as cell-based, Wistar rats. As to the method: (§1) Primary microglial cell cultures were prepared from brains of newborn Wistar rats. Ethics approval for the experiments was granted by the EBIOTEC Review Board (Valter Lombardi, Iván Carrera and Lucía Fernández-Novoa; Project Identification Code: Sinularia Project October 2013; approved 30 October 2013). The neocortex of one-day-old postnatal rats was aseptically dissected out, and the meninges and blood vessels were carefully removed. Following cutting in a medium containing 20% horse serum, the suspension was filtered through a […] and transferred as a single cell suspension to culture dishes, using 5.0 mL of medium per dish. The cultures were incubated at 37 °C in an atmosphere containing 5% CO2. The culture medium consisted of Minimum Essential Medium Eagle, supplemented with L-glutamine, amino acids, vitamins, penicillin, gentamicin, sodium bicarbonate and 20% heat-inactivated horse serum. The medium was changed twice a week. After 1 week, the concentration of horse serum was reduced to 10%. After sixteen days in culture, cells were treated with 1 μg/mL of lipopolysaccharide (LPS). […] Positive controls were treated only with LPS, while negative controls were treated with complete medium. After 72 h of incubation, cells were counted, and 2.5 mL of the supernatants were collected from each well and frozen at −40 °C for cytokine analyses. All experiments were carried out twice.
(§2) The supernatants obtained from cell cultures were analyzed for TNF-α, IL-1β, IL-4, IL-6, IL-8, IL-10 and IL-18 using commercially available ELISA kits following the manufacturers’ instructions. All samples were assayed in duplicate, and equivocal results were repeated. The cytokine concentration was calculated from a standard curve of the corresponding recombinant cytokine.
(§3) The cytotoxicity of the compounds was measured by the colorimetric methyl thiazol tetrazolium (MTT) assay and scored as a percentage of the absorbance reduction of treated cultures versus untreated control cultures. Primary microglial cell cultures were seeded into 96-well microplates at 10^4 cells per well and allowed to grow for 24 h. […] The compounds were serially diluted in complete culture medium with two-fold dilutions (100, 50, 25, 12.5, 6.25, 3.12 and 1.56 μg/mL for in vitro cytotoxicity; 12.5, 6.25, 3.12, 1.56, 0.78 and 0.39 μg/mL for cytokine release). Different concentrations of the compounds were added to each well, and Tamoxifen was used as a positive control, with concentrations ranging from 50 to 1.56 μg/mL. Plates were incubated at 37 °C for 72 h under 5% CO2 atmosphere. Then, the 50 μL of MTT-PBS solution in culture medium were added to each well. The plates were further incubated for 4 h under the same conditions. The medium was then removed and replaced with 200 μL of DMSO to solubilize the MTT formazan product. The solutions were shaken for 20 min, and the absorbance was measured at 570 nm. […] Each value represents the mean of triplicate determinations. The IC50 values were calculated from the compound concentration-response curves.
Background: In an ELISA, binding on a coated surface is turned into a signal by an enzyme label.

Assay [2] has as its system TNF-α. As to the kind of experiment: TNF-α release in supernatants of LPS-treated primary microglial cells (ELISA). It counts as cell-based, Wistar rats. The following applies: 72 h; for TNF-α release: LPS-treated; for IC50: Rattus norvegicus, inhibition of LPS-induced cytokine release, read-out: TNF-α IC50. The procedure: as §1, §2, §3
Assay [3] relates to IL-4. As to the kind of experiment: IL-4 release in supernatants of LPS-treated primary microglial cells (ELISA). It counts as cell-based, Wistar rats. The following applies: 72 h; for IL-4 release: LPS-treated; for IC50: Rattus norvegicus, inhibition of LPS-induced cytokine release, read-out: IL-4 IC50. As to the method:
as §1, §2
as §3, with “The compounds were serially diluted in complete culture medium with two-fold dilutions (100, 50, 25, 12.5, 6.25, 3.12 and 1.56 μg/mL for in vitro cytotoxicity; 12.5, 6.25, 3.12, 1.56, 0.78 and 0.39 μg/mL for cytokine release).” left out

The test system of assay [4] is CHIKV replicon. As to the kind of experiment: microbe, parasite or virus in culture. To be noted: Chikungunya virus, 48 h, read-out: inhibition of the CHIKV replicon (Rluc marker levels). A general note: In antiviral work, replicon cells carry a viral genome segment that copies itself.
Assay [5] deals with CHIKV replicon. As to the kind of experiment: CHIKV replicon assay, Cell-IQ live cell imaging, EGFP fluorescence intensity. The following applies: 50 and 100 μM, 48 h.

With `C=C(C)[C@@H]1CC(=O)[C@H]2[C@H](C1)[C@@H]1C(=O)O[C@@H]3C[C@@]4(C)O[C@H]2C(=O)[C@@H]4[C@H]13` [Compound 6, ineleganolide], the IL-6 release is given as 13.2 ± 0.2 pg/mL in assay [1] (C1: 1.0 μg/mL), 12.1 ± 0.9 pg/mL in assay [1] (C2: 2.5 μg/mL) and 11.8 ± 1.2 pg/mL in assay [1] (C3: 5.0 μg/mL). The half-maximal inhibitory concentration (IC50) in assay [1], in assay [2] and in assay [3] was more than 12.5 mg/L in each case. Moreover, the TNF-α release amounted to 31.2 ± 2.9 pg/mL in assay [2] (C1: 1.0 μg/mL), 30.6 ± 2.6 pg/mL in assay [2] (C2: 2.5 μg/mL) and 32.3 ± 3.2 pg/mL in assay [2] (C3: 5.0 μg/mL). Moreover, the IL-4 release in assay [3] (C1: 1.0 μg/mL) was found to be 1.8 ± 0.6 pg/mL; in assay [3] (C2: 2.5 μg/mL) it was 1.9 ± 0.6 pg/mL; in assay [3] (C3: 5.0 μg/mL), 1.9 ± 0.9 pg/mL. In addition, the inhibition (in general, how much of the control response was suppressed) at 100 µM in assay [4] lay in the range of 0.5 to 63%. Moreover, the “decrease in EGFP marker fluorescence intensity” value (shortened to “decrease”) in assay [5] is on record as “only moderate decreases”.
Regarding `C=C(C)C1CCC23OC2C(CC2(C)CC(=O)C(CC(=O)C1)O2)OC3=O` (centres unmarked) [Compound 3, scabrolide D], the IL-6 release was determined as 12.9 ± 1.1 pg/mL in assay [1] (C1: 1.0 μg/mL), 11.5 ± 1.3 pg/mL in assay [1] (C2: 2.5 μg/mL) and 13.2 ± 1.2 pg/mL in assay [1] (C3: 5.0 μg/mL). Moreover, the IC50 in assay [1], in assay [2] and in assay [3] was more than 12.5 mg/L in each case. The TNF-α release in assay [2] (C1: 1.0 μg/mL) is 33.6 ± 11.2 pg/mL; in assay [2] (C2: 2.5 μg/mL), 24.5 ± 6.9 pg/mL; in assay [2] (C3: 5.0 μg/mL) it was 35.4 ± 12.4 pg/mL. The figures for the IL-4 release in assay [3] (C1: 1.0 μg/mL), in assay [3] (C2: 2.5 μg/mL) and in assay [3] (C3: 5.0 μg/mL) were 1.5 ± 0.9 pg/mL, 1.6 ± 0.8 pg/mL and 1.7 ± 0.5 pg/mL, respectively. The inhibition at 100 µM in assay [4] was 44%. The “decrease” value in assay [5] was “inactive”.
Consider `C=C(C)[C@@H]1C/C=C2\C(=O)O[C@@H](C[C@]3(C)CC(=O)[C@@H](CC(=O)C1)O3)[C@@H]2O` [Compound 2, sinuleptolide], for which the IL-6 release was 12.1 ± 0.9 pg/mL in assay [1] (C1: 1.0 μg/mL), 7.8 ± 1.4 pg/mL in assay [1] (C2: 2.5 μg/mL) and 8.5 ± 1.3 pg/mL in assay [1] (C3: 5.0 μg/mL). Further, the IC50 (usually the concentration that inhibits the measured activity by half) in assay [1] was 2.2 mg/L (≈ 6.31 µM); in assay [2], 1.7 mg/L (≈ 4.88 µM); in assay [3], 0.5 mg/L (≈ 1.44 µM). Moreover, the TNF-α release in assay [2] (C1: 1.0 μg/mL) is on record as 34.1 ± 9.1 pg/mL; in assay [2] (C2: 2.5 μg/mL), 12.3 ± 3.4 pg/mL; in assay [2] (C3: 5.0 μg/mL), 9.8 ± 3.3 pg/mL. The figures for the IL-4 release in assay [3] (C1: 1.0 μg/mL), in assay [3] (C2: 2.5 μg/mL) and in assay [3] (C3: 5.0 μg/mL) were 2.1 ± 0.9 pg/mL, 15.5 ± 2.3 pg/mL and 18.4 ± 1.8 pg/mL, respectively. Moreover, the inhibition at 100 µM in assay [4] was more than 60%. For the same molecule, in assay [5], the “decrease” value is “strongest decrease”.
For `C=C(C)[C@@H]1C/C=C2\C(=O)O[C@@H](C[C@]3(C)CC(=O)[C@H](CC(=O)C1)O3)[C@@H]2O` [Compound 1, 5-epi-sinuleptolide], the figures for the IL-6 release in assay [1] (C1: 1.0 μg/mL), in assay [1] (C2: 2.5 μg/mL) and in assay [1] (C3: 5.0 μg/mL) were 14.2 ± 1.8 pg/mL, 11.7 ± 1.2 pg/mL and 13.5 ± 1.4 pg/mL, respectively. Also, the IC50 in assay [1], in assay [2] and in assay [3] was more than 12.5 mg/L each time. Besides, the TNF-α release in assay [2] (C1: 1.0 μg/mL) worked out at 33.5 ± 11.2 pg/mL; in assay [2] (C2: 2.5 μg/mL), 31.2 ± 9.2 pg/mL; in assay [2] (C3: 5.0 μg/mL), 33.6 ± 11.1 pg/mL. Also, the IL-4 release in assay [3] (C1: 1.0 μg/mL) is 1.9 ± 0.9 pg/mL; in assay [3] (C2: 2.5 μg/mL) it was 2.1 ± 0.8 pg/mL; in assay [3] (C3: 5.0 μg/mL), 1.9 ± 0.4 pg/mL. Besides, the inhibition at 100 µM in assay [4] was more than 60%. For the same molecule, the “decrease” value in assay [5] is “strongest decrease”.

The values are drawn from article PMC4113814, “Bioactive Cembrane Derivatives from the Indian Ocean Soft Coral, Sinularia kavarattiensis” (Marine Drugs, 2014).
